Assay results: PMC11062922 (Nature Chemical Biology, 2023)

Experiments:
ACOX1 = biological target: T1, ACOX1 (Homo sapiens, UniProt Q15067); test: Kinobeads two-dose competition binding: ACOX1; conditions: sheet CATDS matrix 2; Gene Name ACOX1;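 note: competition of compounds with immobilized broad-spectrum kinase inhibitor beads in cell lysate at 100 and 1,000 nM, 45 min at 4 °C, bead-bound protein quantified by label-free MS versus DMSO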
T1 construct: endogenous in cells
T1 sequence (Q15067 1-660): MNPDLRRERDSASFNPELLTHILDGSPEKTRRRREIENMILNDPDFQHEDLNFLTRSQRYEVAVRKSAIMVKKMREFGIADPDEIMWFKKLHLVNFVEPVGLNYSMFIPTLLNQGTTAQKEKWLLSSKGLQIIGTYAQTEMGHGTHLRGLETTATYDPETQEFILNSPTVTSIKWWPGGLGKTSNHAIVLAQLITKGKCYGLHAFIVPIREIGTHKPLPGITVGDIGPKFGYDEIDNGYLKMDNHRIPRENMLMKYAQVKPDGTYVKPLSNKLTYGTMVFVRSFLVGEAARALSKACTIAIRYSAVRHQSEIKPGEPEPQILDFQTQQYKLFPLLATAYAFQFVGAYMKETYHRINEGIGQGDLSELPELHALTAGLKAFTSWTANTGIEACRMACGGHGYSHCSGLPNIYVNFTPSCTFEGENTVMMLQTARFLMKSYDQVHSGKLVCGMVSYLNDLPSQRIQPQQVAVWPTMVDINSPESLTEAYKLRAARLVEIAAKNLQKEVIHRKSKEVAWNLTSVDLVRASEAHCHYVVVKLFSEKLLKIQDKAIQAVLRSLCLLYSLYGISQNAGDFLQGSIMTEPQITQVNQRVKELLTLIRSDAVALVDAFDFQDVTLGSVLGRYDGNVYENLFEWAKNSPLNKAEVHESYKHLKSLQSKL

AAK1 = biological target: T2, AAK1 (Homo sapiens, UniProt Q2M2I8); test: Kinobeads two-dose competition binding: AAK1; conditions: for CATDS: sheet CATDS matrix 2, Gene Name AAK1; for potency estimated from few doses: sheet "Kinobeads Drugmatrix - all", unit inferred, same values below 1000 recur in sheet "nanomolar", read-out: Kinobeads Drugmatrix - all: apparent Kd, AAK1;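 for all read-outs here: kinobeads competition pulldown from cell lysate, compound preincubated 45 min at 4 °C, bead-bound protein measured by label-free mass spectrometry against DMSO vehicle control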
T2 construct: to maximize the representation of endogenous proteins; endogenous in cells

ABL1 = ABL1 (Homo sapiens, UniProt P00519); test: Kinobeads two-dose competition binding: ABL1; conditions: sheet CATDS matrix 2; Gene Name ABL1
ABL2 = biological target: T3, ABL2 (Homo sapiens, UniProt P42684); test: Kinobeads two-dose competition binding: ABL2; conditions: sheet CATDS matrix 2; Gene Name ABL2
T3 construct: endogenous in cells

ACAD11 = biological target: T4, ACAD11 (Homo sapiens, UniProt Q709F0); test: Kinobeads two-dose competition binding: ACAD11; conditions: sheet CATDS matrix 2; Gene Name ACAD11
T4 construct: endogenous in cells
T4 sequence (Q709F0 1-780): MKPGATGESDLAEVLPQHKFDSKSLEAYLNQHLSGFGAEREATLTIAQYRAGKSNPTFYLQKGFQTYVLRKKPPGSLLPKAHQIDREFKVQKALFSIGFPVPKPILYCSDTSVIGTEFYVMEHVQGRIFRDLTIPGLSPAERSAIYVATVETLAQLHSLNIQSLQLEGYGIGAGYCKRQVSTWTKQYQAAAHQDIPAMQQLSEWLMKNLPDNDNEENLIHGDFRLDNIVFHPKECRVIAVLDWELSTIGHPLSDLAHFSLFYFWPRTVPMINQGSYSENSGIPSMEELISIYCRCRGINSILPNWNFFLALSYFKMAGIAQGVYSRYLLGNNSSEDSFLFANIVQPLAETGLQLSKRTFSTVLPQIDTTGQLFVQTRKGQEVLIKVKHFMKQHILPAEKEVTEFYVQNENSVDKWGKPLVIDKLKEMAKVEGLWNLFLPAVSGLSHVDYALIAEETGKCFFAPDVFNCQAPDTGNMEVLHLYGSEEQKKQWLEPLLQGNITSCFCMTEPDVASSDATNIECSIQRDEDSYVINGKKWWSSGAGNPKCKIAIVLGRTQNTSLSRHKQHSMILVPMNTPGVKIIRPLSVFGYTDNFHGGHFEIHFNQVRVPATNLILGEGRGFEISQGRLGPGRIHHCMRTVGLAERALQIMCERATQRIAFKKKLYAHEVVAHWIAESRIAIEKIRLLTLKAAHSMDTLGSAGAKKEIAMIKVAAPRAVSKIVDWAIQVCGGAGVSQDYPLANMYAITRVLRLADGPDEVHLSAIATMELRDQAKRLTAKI

T2 sequence (Q2M2I8 whole entry): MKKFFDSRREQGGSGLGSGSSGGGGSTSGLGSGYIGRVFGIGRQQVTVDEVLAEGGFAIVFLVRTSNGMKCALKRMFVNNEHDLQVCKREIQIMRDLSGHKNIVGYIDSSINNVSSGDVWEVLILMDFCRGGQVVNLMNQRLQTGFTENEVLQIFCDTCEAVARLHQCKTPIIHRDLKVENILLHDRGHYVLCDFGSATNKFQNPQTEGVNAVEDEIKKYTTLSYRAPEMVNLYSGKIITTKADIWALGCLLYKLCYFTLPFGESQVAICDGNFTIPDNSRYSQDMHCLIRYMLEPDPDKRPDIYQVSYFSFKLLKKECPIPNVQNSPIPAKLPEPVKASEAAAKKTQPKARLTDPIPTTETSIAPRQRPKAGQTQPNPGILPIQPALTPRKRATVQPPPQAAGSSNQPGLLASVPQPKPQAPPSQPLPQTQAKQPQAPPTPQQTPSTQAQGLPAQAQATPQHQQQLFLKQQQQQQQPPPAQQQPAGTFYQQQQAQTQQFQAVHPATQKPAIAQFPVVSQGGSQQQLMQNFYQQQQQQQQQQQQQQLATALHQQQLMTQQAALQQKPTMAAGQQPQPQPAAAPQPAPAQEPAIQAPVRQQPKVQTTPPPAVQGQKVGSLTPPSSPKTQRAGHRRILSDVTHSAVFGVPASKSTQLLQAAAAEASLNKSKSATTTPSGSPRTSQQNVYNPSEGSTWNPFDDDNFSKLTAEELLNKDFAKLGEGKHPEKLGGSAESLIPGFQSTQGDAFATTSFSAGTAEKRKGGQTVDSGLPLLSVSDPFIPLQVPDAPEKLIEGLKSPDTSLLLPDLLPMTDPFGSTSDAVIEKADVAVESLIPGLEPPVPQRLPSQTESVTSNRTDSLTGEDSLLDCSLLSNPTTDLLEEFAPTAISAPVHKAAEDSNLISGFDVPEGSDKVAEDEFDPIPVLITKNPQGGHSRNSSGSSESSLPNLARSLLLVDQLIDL
ABL1, sequence (P00519 28-1130 limits assumed): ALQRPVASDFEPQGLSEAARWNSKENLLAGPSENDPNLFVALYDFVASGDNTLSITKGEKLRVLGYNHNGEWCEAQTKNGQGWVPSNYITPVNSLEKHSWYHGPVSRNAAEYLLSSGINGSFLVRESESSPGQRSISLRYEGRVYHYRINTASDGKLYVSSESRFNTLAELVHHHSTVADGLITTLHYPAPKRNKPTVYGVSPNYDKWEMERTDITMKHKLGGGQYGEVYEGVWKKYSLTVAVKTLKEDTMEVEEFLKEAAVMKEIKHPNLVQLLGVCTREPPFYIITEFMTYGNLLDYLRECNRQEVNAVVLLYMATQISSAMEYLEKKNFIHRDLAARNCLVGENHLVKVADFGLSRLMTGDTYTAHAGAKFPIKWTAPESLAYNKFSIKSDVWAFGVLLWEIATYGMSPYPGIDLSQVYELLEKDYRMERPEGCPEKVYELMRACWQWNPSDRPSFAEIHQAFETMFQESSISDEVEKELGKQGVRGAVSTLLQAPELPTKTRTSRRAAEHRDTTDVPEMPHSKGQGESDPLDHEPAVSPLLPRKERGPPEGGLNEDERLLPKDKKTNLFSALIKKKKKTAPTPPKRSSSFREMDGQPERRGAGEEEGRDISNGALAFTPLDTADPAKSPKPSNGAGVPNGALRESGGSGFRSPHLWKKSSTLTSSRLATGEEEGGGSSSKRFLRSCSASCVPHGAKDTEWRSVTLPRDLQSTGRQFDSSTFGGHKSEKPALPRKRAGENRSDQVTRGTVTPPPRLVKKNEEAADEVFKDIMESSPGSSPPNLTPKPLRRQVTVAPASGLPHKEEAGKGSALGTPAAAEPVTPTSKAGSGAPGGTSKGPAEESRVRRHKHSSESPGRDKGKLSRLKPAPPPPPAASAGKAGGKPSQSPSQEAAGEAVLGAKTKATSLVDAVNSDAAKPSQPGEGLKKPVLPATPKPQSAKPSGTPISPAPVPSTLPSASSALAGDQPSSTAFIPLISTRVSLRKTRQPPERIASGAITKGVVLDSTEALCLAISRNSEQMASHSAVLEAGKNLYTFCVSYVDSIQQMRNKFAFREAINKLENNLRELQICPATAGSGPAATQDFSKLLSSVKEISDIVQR
T3 sequence (P42684 whole entry): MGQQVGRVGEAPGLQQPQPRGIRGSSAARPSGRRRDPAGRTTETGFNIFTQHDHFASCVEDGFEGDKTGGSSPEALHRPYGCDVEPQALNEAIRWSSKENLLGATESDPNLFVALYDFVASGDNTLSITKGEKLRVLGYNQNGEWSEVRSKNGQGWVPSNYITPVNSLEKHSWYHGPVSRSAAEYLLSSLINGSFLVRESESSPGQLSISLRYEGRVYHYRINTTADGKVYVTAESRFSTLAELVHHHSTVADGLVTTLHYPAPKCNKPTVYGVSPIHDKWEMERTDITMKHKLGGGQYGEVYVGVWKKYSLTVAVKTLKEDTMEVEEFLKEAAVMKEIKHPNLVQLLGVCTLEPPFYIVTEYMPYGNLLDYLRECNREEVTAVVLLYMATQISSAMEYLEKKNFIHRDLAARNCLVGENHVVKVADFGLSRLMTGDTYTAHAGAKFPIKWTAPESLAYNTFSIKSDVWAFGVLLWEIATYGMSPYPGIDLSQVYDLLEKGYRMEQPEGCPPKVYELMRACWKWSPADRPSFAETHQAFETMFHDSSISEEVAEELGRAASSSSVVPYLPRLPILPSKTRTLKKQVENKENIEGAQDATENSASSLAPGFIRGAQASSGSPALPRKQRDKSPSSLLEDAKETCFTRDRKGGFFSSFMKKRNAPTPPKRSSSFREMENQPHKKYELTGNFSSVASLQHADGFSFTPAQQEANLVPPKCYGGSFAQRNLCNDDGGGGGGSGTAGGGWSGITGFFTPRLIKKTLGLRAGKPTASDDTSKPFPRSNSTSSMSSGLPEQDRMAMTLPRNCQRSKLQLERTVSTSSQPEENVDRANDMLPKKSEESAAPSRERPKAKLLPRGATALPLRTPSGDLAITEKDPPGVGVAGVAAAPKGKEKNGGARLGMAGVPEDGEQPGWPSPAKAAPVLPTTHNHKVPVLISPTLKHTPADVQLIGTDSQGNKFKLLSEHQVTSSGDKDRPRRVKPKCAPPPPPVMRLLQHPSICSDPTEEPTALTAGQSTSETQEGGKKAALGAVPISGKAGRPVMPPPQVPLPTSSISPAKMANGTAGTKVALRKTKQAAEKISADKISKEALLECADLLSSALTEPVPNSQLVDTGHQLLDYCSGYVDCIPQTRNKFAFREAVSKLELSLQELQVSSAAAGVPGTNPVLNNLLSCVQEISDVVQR

| CATDS (ACOX1) | CATDS (AAK1) | CATDS (ABL1) | CATDS (ABL2) | CATDS (ACAD11) | potency estimated from few doses (AAK1) | Compound |
| --- | --- | --- | --- | --- | --- | --- |
| 0 | 0 | 0 | 0 | 0 |  | COc1cc2c(cc1Nc1nc(Nc3ccsc3C(N)=O)c3cc[nH]c3n1)N(C(=O)CN(C)C)CCC2 [GSK2110236A] |
| 0 | 0 | 0 | 0 | 0 |  | Cc1c(Cn2c3ccccc3n3c(=O)cc(N4CCOCC4)nc23)cccc1C(F)(F)F [GSK2306394A] |
| 0 | 0 |  | 0 | 0 |  | CNc1nc(-c2ccc3c(N)n[nH]c3c2)cc(N2C[C@@H](C(=O)NC3CCCCC3)CC[C@H]2C)n1 [GSK2334470] |
|  |  |  |  |  | > 1000 nM | COc1cccc(NC(=O)NC2CCN(c3ccnc(Nc4cc(OC)c(OC)c(OC)c4)n3)C2)c1 (centres unmarked) [GSK1379763A] |
| 0 | 0 | 0 | 0 | 0 |  | Nc1ncc(-c2ccc3nccc(-c4ccncc4)c3c2)cc1S(=O)(=O)N1CCCCC1 [GSK1693850A] |
| 0 | 0 | 0 | 0 | 0 |  | c1ccc(Cc2nc3ccc(Nc4ncnc5ccccc45)cc3[nH]2)cc1 [GR269666A_KCGS] |
| 0 | 0 | 0 | 0 | 0 |  | COc1ncc(-c2cc(-c3ncc(CN4C[C@@H](C)O[C@@H](C)C4)o3)c3cn[nH]c3c2)cc1NS(C)(=O)=O [GSK2292767] |
| 0 | 0 | 0 | 0 | 0 |  | N#Cc1cccc(C(=O)NC2CCN(c3ccnc(Nc4ccc(F)cc4)n3)C2)c1 (centres unmarked) [GSK1379708A] |
| 0 | 0 | 0 | 0 | 0 |  | COc1cc(C)c(NC(=O)CN(C)C)cc1Nc1nc(Nc2cccc(F)c2C(N)=O)c2cc[nH]c2n1 [GSK2213727A] |
| 0 | 0 | 0 | 0 | 0 |  | Cc1ccc(NC(=O)Nc2ccccc2)cc1-c1ccc(C(=O)Nc2ccncc2)cc1 [GSK1398471A] |
| 0 | 0 | 0 | 0 | 0 |  | COc1cc(Nc2ncc(F)c(Nc3ccc4c(n3)N(COP(=O)(O)O)C(=O)C(C)(C)O4)n2)cc(OC)c1OC [Fostamatinib, reference compound] |
| 0 | 0.1267 | 0 | 0 | 0 |  | CCS(=O)(=O)N1CC(CC#N)(n2cc(-c3ncnc4[nH]ccc34)cn2)C1 [Baricitinib, reference compound] |
| 0 | 0 | 0 | 0 | 0 |  | CNc1nc(-c2ccc3c(N)n[nH]c3c2)cc(N2C[C@@H](C(=O)Nc3ccccc3)CC[C@H]2C)n1 [GSK2298859A] |
| 0 | 0 | 0 | 0 | 0 |  | COc1cc(Nc2cnc(C#N)c(O[C@H](C)CN(C)C)n2)ncc1-c1cnn(C)c1 [CCT244747] |
| 0 | 0 | 0 | 0 | 0 |  | Cc1cn2c(=O)cc(N3CCOCC3)nc2n1Cc1cccc(Cl)c1Cl [GSK2334006A] |
| 0 | 0 | 0 | 0 | 0 |  | Cc1ccc(NC(=O)c2cccc(C#N)c2)cc1-c1ccc(C(=O)Nc2ccncc2)cc1 [GSK1398463A] |
| 0 | 0 | 0 | 0 | 0 |  | COc1cc(Nc2ccnc3ccc(Br)cc23)cc(OC)c1OC [CA93.0] |
| 0 | 0 | 0 | 0 | 0 | > 1000 nM | COc1cc(Nc2nccc(N3CCC(NC(=O)C4COc5ccccc5O4)C3)n2)cc(OC)c1OC (centres unmarked) [GSK1379761A] |
| 0 | 0 | 0 | 0 | 0 |  | C[C@H]1CC[C@@H](C(=O)Nc2ccccc2)CN1c1cc(-c2ccc3c(N)n[nH]c3c2)nc(N)n1 [GSK2283293_KCGS] |
| 0 | 0 |  | 0 | 0 |  | CNC(=O)c1ccccc1Sc1ccc2c(/C=C/c3ccccn3)n[nH]c2c1 [Axitinib, reference compound] |
| 0 | 0 |  | 0.02813 | 0 |  | CC(C)(C)c1nc(-c2cccc(NS(=O)(=O)c3c(F)cccc3F)c2F)c(-c2ccnc(N)n2)s1 [Dabrafenib, reference compound] |
| 0 | 0 |  | 0.1826 | 0 |  | Cc1nc(Nc2ncc(C(=O)Nc3c(C)cccc3Cl)s2)cc(N2CCN(CCO)CC2)n1 [Dasatinib, reference compound] |
|  |  |  |  |  | > 1000 nM | COc1ccc(CNC(=O)NC2CCN(c3ccnc(Nc4cc(OC)c(OC)c(OC)c4)n3)C2)cc1 (centres unmarked) [GSK1379748A] |
| 0 | 0.01814 | 0 | 0 |  | 64.1 nM | O=c1[nH]ccc2nc(N[C@@H]3CCCNC3)nc(Nc3ccc(S(=O)(=O)N4CCOCC4)cc3)c12 [GSK2177277A] |
| 0 | 0.0448 |  | 0 | 0 |  | O=C(Nc1c[nH]nc1-c1nc2ccc(CN3CCOCC3)cc2[nH]1)NC1CC1 [AT-9283, reference compound] |
| 0 |  |  |  | 0 |  | COc1cc(Nc2c(C#N)cnc3cc(OCCCN4CCN(C)CC4)c(OC)cc23)c(Cl)cc1Cl [Bosutinib, reference compound] |
|  | 0 | 0 |  |  |  | C#Cc1cccc(Nc2ncnc3cc(OCCOC)c(OCCOC)cc23)c1 [Erlotinib, reference compound] |
| 0 | 0 |  | 0.05811 | 0 |  | CO[C@@H](C(=O)N1Cc2n[nH]c(NC(=O)c3ccc(N4CCN(C)CC4)cc3)c2C1)c1ccccc1 [Danusertib, reference compound] |
|  | 0 |  |  |  |  | COc1cc2ncnc(Nc3ccc(F)c(Cl)c3)c2cc1OCCCN1CCOCC1 [Gefitinib, reference compound] |
| 0 | 0 |  | 0.04718 | 0 |  | C[C@@H](Oc1cc(-c2cnn(C3CCNCC3)c2)cnc1N)c1c(Cl)ccc(F)c1Cl [Crizotinib, reference compound] |

| Compound | CATDS (ACOX1) | CATDS (AAK1) | CATDS (ABL1) | CATDS (ABL2) | CATDS (ACAD11) | potency estimated from few doses (AAK1) |
| --- | --- | --- | --- | --- | --- | --- |
| NCCCC(NC(=O)c1cc(Br)c(-c2ccnc3[nH]ccc23)s1)c1ccccc1 (centres unmarked) [GSK1287544A] | 0 | 0 | 0 | 0 | 0 |  |
| COc1ccc2ncnc(Nc3ccc(OCc4ccccc4)cc3)c2c1 [GI261520A] | 0 | 0 | 0 | 0 | 0 |  |
| COc1cc2ncnc(Nc3cccc(Br)c3)c2cc1OC [GI230329A] | 0 | 0 |  | 0 | 0 |  |
